Data published in publication PMC3552057 (Biochemistry, 2013).

Target: T1, HpxO (Klebsiella pneumoniae, UniProt A6T923)
T1 sequence (A6T923 1-384): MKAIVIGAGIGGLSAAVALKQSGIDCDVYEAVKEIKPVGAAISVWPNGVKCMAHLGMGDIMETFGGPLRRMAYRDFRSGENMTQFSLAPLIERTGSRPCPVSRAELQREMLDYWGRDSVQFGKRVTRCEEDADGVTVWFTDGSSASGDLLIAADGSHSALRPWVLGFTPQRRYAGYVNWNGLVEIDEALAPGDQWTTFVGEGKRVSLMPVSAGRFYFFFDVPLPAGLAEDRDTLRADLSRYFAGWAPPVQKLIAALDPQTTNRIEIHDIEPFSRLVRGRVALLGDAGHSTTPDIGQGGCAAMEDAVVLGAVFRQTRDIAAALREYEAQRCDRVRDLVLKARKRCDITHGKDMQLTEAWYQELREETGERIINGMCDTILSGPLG
Experiment: X-ray crystal structure, […] Å
Type: binding
Settings: SeMet HpxO without uric acid; FAD in the in conformation

Cc1cc2nc3c(=O)[nH]c(=O)nc-3n(C[C@H](O)[C@H](O)[C@H](O)COP(=O)(O)OP(=O)(O)OC[C@H]3O[C@@H](n4cnc5c(N)ncnc54)[C@H](O)[C@@H]3O)c2cc1C [FAD]
X-ray crystal structure, 2.2 Å: One FAD molecule binds to the HpxO monomer in an extended conformation
